{"source": "patent US5674533A", "about": "“Pharmaceutical composition for the controlled release of moguisteine in a liquid suspension” (Recordati, S.A., Chemical And Pharmaceutical Company, priority 1994, dated 1997)", "origin": "cited, not measured here", "key": {"[1]": {"conditions": "for antitussive activity of enantiomers: R(+) vs S(-)"}, "[2]": {"conditions": "in humans"}, "[3]": {"tested_on": "rapidly adapting irritant receptors (RARs)", "conditions": "peripheral site of action"}, "[4]": {"conditions": "in vivo"}, "[5]": {"assay": "not given", "remark": "listed apart in the source"}}}
{"smiles": "CCOC(=O)CC(=O)N1CCSC1COc1ccccc1OC", "note": "(single isomer, unassigned) [S(-) enantiomer]", "values": [{"measurement": "antitussive activity of enantiomers", "setting": "[1]", "value": "equivalent antitussive activity"}]}
{"smiles": "CCOC(=O)CC(=O)N1CCSC1COc1ccccc1OC", "note": "(single isomer, unassigned) [R(+) enantiomer]", "values": [{"measurement": "antitussive activity of enantiomers", "setting": "[1]", "value": "equivalent antitussive activity"}]}
{"smiles": "CCOC(=O)CC(=O)N1CCSC1COc1ccccc1OC", "note": "(racemic) [moguisteine, (R,S)-2-[(2-methoxyphenoxy)methyl-3-ethoxycarbonyl-1-acetyl]-1,3-thiazolidine]", "values": [{"measurement": "half-life after administration", "setting": "[2]", "value": "less than one hour"}, {"measurement": "antitussive potency relative to codeine, dextromethorphan and zipripol", "setting": "[1]; in vivo", "value": "as potent as codeine, dextromethorphan and zipripol"}, {"measurement": "antitussive potency relative to (D,L)-dropropizine", "setting": "[1]; vs (D,L)-dropropizine", "value": "3-4 times more potent"}, {"measurement": "action via opioid receptors", "setting": "opioid receptors", "value": "does not act via opioid receptors"}, {"measurement": "interaction with RARs", "setting": "[3]", "value": "interacts with the so-called \"rapidly adapting irritant receptors\" (RARs)"}, {"measurement": "addiction", "setting": "[4]", "value": "causes no addiction"}, {"measurement": "tolerability in high doses relative to codeine or dextromethorphan", "setting": "[4]", "value": "better tolerated in high doses than codeine or dextromethorphan"}, {"measurement": "solubility in aqueous fluids", "value": "relatively insoluble in aqueous fluids"}]}
{"smiles": "COc1ccccc1OCC1SCCN1C(=O)CC(=O)O", "note": "(racemic) [active metabolite, (R,S)-2-[(methoxyphenoxy)methyl]-3-carboxyacetyl]-1,3 thiazolidine acid]", "values": [{"measurement": "presence in biological fluids in measurable quantities", "setting": "[5]; after oral or intravenous administration of moguisteine", "value": "only its active metabolite"}, {"measurement": "rate of absorption relative to moguisteine", "setting": "[5]; oral", "value": "five times slower than moguisteine"}]}
{"smiles": "COc1ccc2c3c1O[C@H]1[C@@H](O)C=C[C@H]4[C@@H](C2)N(C)CC[C@@]341", "note": "[Codeine]", "values": [{"measurement": "addiction", "setting": "[4]", "value": "potentially causing addiction"}]}
